Experimental data from patent publication US4148896A, “Antidepressant combination” (E. I. Du Pont de Nemours and Company, priority 1978, dated 1979).
Where two headings read alike, the source gives them in different places.

What was measured:
[1] = test system: tetrabenazine-induced sedation; test: Mouse antidepressant (antitetrabenazine) test: prevention of tetrabenazine-induced ptosis and loss of exploratory activity; conditions: for ED50: Mus musculus, po; for No. of Mice Blocked, EXPLORATORY ACTIVITY / No. of Mice Blocked, PTOSIS: 1 h after amantadine
[2] = test system: mice; conditions: for NUMBER OF MICE DEAD: N=10; for Effect of amantadine on molindone toxicity (mortality): mice, oral
[3] = target: T1, mouse brain MAO (Mus musculus, UniProt Q64133); conditions: substrate 5 HT
T1 sequence (Q64133 1-526): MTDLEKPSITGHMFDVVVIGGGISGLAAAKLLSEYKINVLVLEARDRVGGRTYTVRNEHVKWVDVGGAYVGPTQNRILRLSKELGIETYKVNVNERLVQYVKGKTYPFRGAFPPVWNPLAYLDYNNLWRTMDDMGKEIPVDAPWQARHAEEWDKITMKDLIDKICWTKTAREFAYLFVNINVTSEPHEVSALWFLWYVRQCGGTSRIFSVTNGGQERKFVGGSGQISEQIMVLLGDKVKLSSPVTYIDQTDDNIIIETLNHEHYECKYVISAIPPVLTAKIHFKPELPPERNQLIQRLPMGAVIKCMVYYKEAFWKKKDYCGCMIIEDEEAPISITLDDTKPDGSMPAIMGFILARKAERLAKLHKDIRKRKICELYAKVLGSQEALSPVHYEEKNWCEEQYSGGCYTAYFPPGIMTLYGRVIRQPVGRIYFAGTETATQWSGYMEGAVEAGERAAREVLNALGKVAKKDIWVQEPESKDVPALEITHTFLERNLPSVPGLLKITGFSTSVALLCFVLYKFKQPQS

[4] = target: T1, mouse brain MAO; test: biochemical
[5] = 1 mg/kg oral (free base), 1 h, N=10
[6] = 3 mg/kg oral (free base), 1 h, N=10
[7] = 9 mg/kg oral (free base), 1 h, N=10
[8] = 20 mg/kg oral (free base), 0.5 h, N=20
[9] = 20 mg/kg oral (free base), 1 h, N=20
[10] = 20 mg/kg oral (free base), 2 h, N=20
[11] = 20 mg/kg oral (free base), 4 h, N=20
[12] = 27 mg/kg oral (free base), 1 h, N=10
[13] = 81 mg/kg oral (free base), 1 h, N=10
[14] = amantadine 2 mg/kg oral alone, N=20
[15] = amantadine 6 mg/kg oral alone, N=20
[16] = amantadine 18 mg/kg oral alone, N=20
[17] = amantadine 54 mg/kg oral alone, N=20
[18] = amantadine alone, oral, 1 h, free base basis, N=20 (Table 2)

For NC12CC3CC(CC(C3)C1)C2 [Amantadine, 1-adamantanamine], the “NUMBER OF MICE BLOCKED, EXPLORATORY ACTIVITY” value [1, 5] was 0, the “NUMBER OF MICE BLOCKED, PTOSIS” value [1, 5] was 1 and the “NUMBER OF MICE BLOCKED, EXPLORATORY ACTIVITY” value [1, 6] was 0. For the same molecule, the “NUMBER OF MICE BLOCKED, PTOSIS” value [1, 6] was 1, the “NUMBER OF MICE BLOCKED, EXPLORATORY ACTIVITY” value [1, 7] was 4 and the “NUMBER OF MICE BLOCKED, PTOSIS” value [1, 7] was 5. The “NUMBER OF MICE BLOCKED, EXPLORATORY ACTIVITY” value [1, 8] was 1, the “NUMBER OF MICE BLOCKED, PTOSIS” value [1, 8] was 4 and the “NUMBER OF MICE BLOCKED, EXPLORATORY ACTIVITY” value [1, 9] was 8. The “NUMBER OF MICE BLOCKED, PTOSIS” value [1, 9] was 13, the “NUMBER OF MICE BLOCKED, EXPLORATORY ACTIVITY” value [1, 10] was 6 and the “NUMBER OF MICE BLOCKED, PTOSIS” value [1, 10] was 11. The “NUMBER OF MICE BLOCKED, EXPLORATORY ACTIVITY” value [1, 11] was 0, the “NUMBER OF MICE BLOCKED, PTOSIS” value [1, 11] was 2 and the “NUMBER OF MICE BLOCKED, EXPLORATORY ACTIVITY” value [1, 12] was 4. The “NUMBER OF MICE BLOCKED, PTOSIS” value [1, 12] was 7, the “NUMBER OF MICE BLOCKED, EXPLORATORY ACTIVITY” value [1, 13] was 8 and the “NUMBER OF MICE BLOCKED, PTOSIS” value [1, 13] was 10. For the same molecule, the ED50 ([1]; 1 h, read-out: ED50, E[…], oral, free base basis, 1 h after drug (Table 1)) was 24 mg/kg, the ED50 ([1]; 1 h, read-out: ED50, PTOSIS, oral, free base basis, 1 h after drug (Table 1)) was 9.6 mg/kg and the “No. of Mice Blocked, EXPLORATORY ACTIVITY” value [1, 14] was 0. The “No. of Mice Blocked, PTOSIS” value [1, 14] was 2, the “No. of Mice Blocked, EXPLORATORY ACTIVITY” value [1, 15] was 2 and the “No. of Mice Blocked, PTOSIS” value [1, 15] was 4. The “No. of Mice Blocked, EXPLORATORY ACTIVITY” value [1, 16] was 12, the “No. of Mice Blocked, PTOSIS” value [1, 16] was 17 and the “No. of Mice Blocked, EXPLORATORY ACTIVITY” value [1, 17] was 16. The “No. of Mice Blocked, PTOSIS” value [1, 17] was 19, the “ED50, EXPLORATORY ACTIVITY, Amantadine” value [1, 18] was 16.6 mg/kg and the “ED50, PTOSIS, Amantadine” value [1, 18] was 9.4 mg/kg. The “ED50, PTOSIS” value ([1]; oral, free base basis, 1 h after drug (Table 1), 60 min) was 9.4 mg/kg, the “NUMBER OF MICE DEAD” value ([2]; amantadine 267 mg/kg oral alone, 0.5 h) was 0 and the “NUMBER OF MICE DEAD” value ([2]; amantadine 267 mg/kg oral alone, 1 h) was 0. The “NUMBER OF MICE DEAD” value ([2]; amantadine 267 mg/kg oral alone, 2 h) was 0, the “NUMBER OF MICE DEAD” value ([2]; amantadine 267 mg/kg oral alone, 4 h) was 0 and the “NUMBER OF MICE DEAD” value ([2]; amantadine 267 mg/kg oral alone, 24 h) was 0. The “NUMBER OF MICE DEAD” value ([2]; amantadine 267 mg/kg oral alone, 336 h) was 0, the “NUMBER OF MICE DEAD” value ([2]; amantadine 400 mg/kg oral alone, 0.5 h) was 1 and the “NUMBER OF MICE DEAD” value ([2]; amantadine 400 mg/kg oral alone, 1 h) was 1. For the same molecule, the “NUMBER OF MICE DEAD” value ([2]; amantadine 400 mg/kg oral alone, 2 h) was 1, the “NUMBER OF MICE DEAD” value ([2]; amantadine 400 mg/kg oral alone, 4 h) was 1 and the “NUMBER OF MICE DEAD” value ([2]; amantadine 400 mg/kg oral alone, 24 h) was 1. The “NUMBER OF MICE DEAD” value ([2]; amantadine 400 mg/kg oral alone, 336 h) was 1, the “NUMBER OF MICE DEAD” value ([2]; amantadine 600 mg/kg oral alone, 0.5 h) was 4 and the “NUMBER OF MICE DEAD” value ([2]; amantadine 600 mg/kg oral alone, 1 h) was 4. The “NUMBER OF MICE DEAD” value ([2]; amantadine 600 mg/kg oral alone, 2 h) was 4, the “NUMBER OF MICE DEAD” value ([2]; amantadine 600 mg/kg oral alone, 4 h) was 4 and the “NUMBER OF MICE DEAD” value ([2]; amantadine 600 mg/kg oral alone, 24 h) was 5. The “NUMBER OF MICE DEAD” value ([2]; amantadine 600 mg/kg oral alone, 336 h) was 5, the “NUMBER OF MICE DEAD” value ([2]; amantadine 900 mg/kg oral alone, 0.5 h) was 8 and the “NUMBER OF MICE DEAD” value ([2]; amantadine 900 mg/kg oral alone, 1 h) was 8. The “NUMBER OF MICE DEAD” value ([2]; amantadine 900 mg/kg oral alone, 2 h) was 8, the “NUMBER OF MICE DEAD” value ([2]; amantadine 900 mg/kg oral alone, 4 h) was 8 and the “NUMBER OF MICE DEAD” value ([2]; amantadine 900 mg/kg oral alone, 24 h) was 8. For the same molecule, the “NUMBER OF MICE DEAD” value ([2]; amantadine 900 mg/kg oral alone, 336 h) was 8, the “NUMBER OF MICE DEAD” value ([2]; amantadine 1350 mg/kg oral alone, 0.5 h) was 10 and the “NUMBER OF MICE DEAD” value ([2]; amantadine 1350 mg/kg oral alone, 1 h) was 10. The “NUMBER OF MICE DEAD” value ([2]; amantadine 1350 mg/kg oral alone, 2 h) was 10, the “NUMBER OF MICE DEAD” value ([2]; amantadine 1350 mg/kg oral alone, 4 h) was 10 and the “NUMBER OF MICE DEAD” value ([2]; amantadine 1350 mg/kg oral alone, 24 h) was 10. The “NUMBER OF MICE DEAD” value ([2]; amantadine 1350 mg/kg oral alone, 336 h) was 10, the “Effect of amantadine on molindone toxicity (mortality)” value [2] was “decreases the toxicity of molindone” and the “Effect of amantadine on molindone toxicity (mortality)” value ([2]; listed as amantadine hydrochloride) was “reduces molindone hydrochloride lethal toxicity”.
NNCCc1ccccc1 [PHENELZINE . SO4] was tested, and the “% INHIBITION” value ([3]; final conc. 10^-4 m/l) was 88%, the “% INHIBITION” value ([3]; final conc. 10^-5 m/l) was 81% and the “% INHIBITION” value ([3]; final conc. 10^-6 m/l) was 3%. The IC50 [4] was 4 µM.
